Reference: patent US5656662A, “Synthesis of optically pure 4-alkenyl- or 4-alkanyl-2-hydroxytetronic acids” (The Ohio State University Research Foundation, priority 1995, dated 1997)

Key:
Type in all cases: cell-based
[1] = system: IL-1ra; assay: IL-1ra secretion from purified human monocytes; set-up: key: NE: No effect; INHIB: Inhibition; STIM: Stimulation; IC40: 40% Inhibitory Concentration; EC50: 50% Effective Concentration; TC: Tolerated Concentration; IA: Interferes with Assay
Description: This assay determines the effect of test compounds on the secretion of IL-1ra from purified human monocytes. Compounds are tested for their ability to downregulate or upregulate the production of IL-1ra in unstimulated monocytes and in activated monocytes. Test compounds are incubated for sixteen hours with purified human monocytes at four dilutions over a range of three log10 concentrations. Where appropriate, lipopolysaccharide (LPS) is used to stimulate the monocytes.
The level of IL-1ra in the resultant supernatants is quantitated in a solid phase Enzyme-linked Immunoassay (EIA) performed in a 96 well format. IL-1ra present in the samples is captured by a specific monoclonal antibody immobilized on the well, and probed with an anti-IL-1ra polyclonal antibody. A second antibody conjugated to horseradish peroxidase is then added, followed by an appropriate substrate. The levels of IL-1ra are determined by interpolation of the resultant color change in the substrate from a standard curve. […]
This assay determines the effect of test compounds on the secretion of IL-1ra from purified human monocytes. […] The level of IL-1ra in the resultant supernatants is quantitated in a solid phase Enzyme-linked Immunoassay (EIA) performed in a 96 well format. […] The levels of IL-1ra are determined by interpolation of the resultant color change in the substrate from a standard curve. […]

[2] = system: PGE2; assay: PGE2 production by purified human monocytes; set-up: key to EFFECT on PGE2: NE: No effect; INHIB: Inhibition; STIM: Stimulation; IC40: 40% Inhibitory Concentration; EC50: 50% Effective Concentration; TC: Tolerated Concentration; IA: Interferes with Assay
Description: (§1) This procedure measures the ability of test compounds to modulate the amount of PGE2 produced by purified human monocytes. Compounds are tested for their ability to downregulate the secretion of PGE2 from activated monocytes, or upregulate secretion of PGE2 from unstimulated monocytes. Test compounds are incubated for ninety minutes with purified human monocytes at four dilutions over a range of three log10 concentrations. Where appropriate, zymosan is used to stimulate the monocytes.
(§2) The level of PGE2 in the resultant supernatants is quantitated by immunoassay performed in a 96 well format. PGE2 levels modulated by unknown compounds are determined by interpolation from a standard curve. All compounds are tested in duplicate with controls and standards.

[3] = system: peptidoleukotrienes; assay: Peptidoleukotriene production by purified human monocytes; set-up: key: NE: No effect; INHIB: Inhibition; STIM: Stimulation; IC40: 40% Inhibitory Concentration; EC50: 50% Effective Concentration; TC: Tolerated Concentration; IA: Interferes with Assay
Description: as §1, with “peptidoleukotrienes” for “PGE2”
as §2, with “of peptidoleukotrienes” for “of PGE2”, “format. Peptidoleukotriene” for “format. PGE2”

[4] = system: PAF; assay: PAF production by purified human monocytes; set-up: key: NE: No effect; INHIB: Inhibition; STIM: Stimulation; IC40: 40% Inhibitory Concentration; EC50: 50% Effective Concentration; TC: Tolerated Concentration; IA: Interferes with Assay
Description: as §1, with “This assay” for “This procedure”, “of PAF” for “of PGE2”, “monocytes ar” for “monocytes at”
The level of PAF in the resultant supernatants is quantitated by immunoassay performed in a 96 well format. PAF levels modulated by unknown compounds are determined by interpolation from a standard curve. All compounds are tested in duplicate with controls and standards.
as §1, with “This assay” for “This procedure”, “of PAF” for “of PGE2”, “by purified,” for “by purified”, “monocytes ar” for “monocytes at”

CCCCCCCCCCCCCC/C=C\CC[C@@H]1OC(=O)C(O)=C1O [(S)-3,4-Dihydroxy-5-[(Z)-3-octadecenyl]-2(5H)-furanone]
EFFECT on IL1ra ([1]; STIMULATED): NE | EFFECT on IL1ra ([1]; UNSTIMULATED): NE | EC50 ([2]; Homo sapiens, Monocyte, STIMULATED, INHIB): 2 µM | EFFECT on PGE2 ([2]; STIMULATED): INHIB | EFFECT on PGE2 ([2]; UNSTIMULATED): NE | EFFECT on PEPTIDOLEUKOTRIENES ([3]; STIMULATED): NE | EFFECT on PEPTIDOLEUKOTRIENES ([3]; UNSTIMULATED): NE | EFFECT on PAF ([4]; STIMULATED): NE | EFFECT on PAF ([4]; UNSTIMULATED): NE
